Results from PMC10906247, “From Functional Fatty Acids to Potent and Selective Natural-Product-Inspired Mimetics via Conformational Profiling” (ACS Central Science, 2024).
Several values for one entry are separate records, joined by “and”; a condition that tells them apart may be missing. Equal entries are not always repeated. Where two headings read alike, the source gives them in different places.

Legend:
GPR40 (FFAR1) = GPR40 (FFAR1) (Homo sapiens, UniProt O14842); assay: PathHunter β-arrestin assay (Eurofins Discovery), GPR40; format: cell-based; details: for GPR40 potency relative to oleic acid: EC50 ratio vs control oleic acid; for GPR40 max. efficacy: oleic acid = 100
Procedure: (§1) With these compounds in hand, attention was directed at evaluating their properties as ligands to GPR40, GPR120,[24] and TLX. Initial profiling experiments were conducted targeting the GPCR targets at a single concentration (15 μM) in a commercially available β-arrestin assay.
(§2) Functional assays at GPR40 and GPR120 were conducted by Eurofins Discovery services using their PathHunter® b-Arrestin assay that monitors the activation of a GPCR in a homogenous, non-imaging assay format using a technology developed by DiscoverX called Enzyme Fragment Complementation (EFC) with b-galactosidase (b-Gal) as the functional reporter. b-Arrestin GPCR cell lines built on the principles of EFC are engineered to co-express the ProLinkTM (PK) tagged GPCR and the Enzyme Acceptor (EA) tagged b-Arrestin. Activation of the GPCR-PK induces b-Arrestin-EA recruitment, forcing complementation of the two b-galactosidase enzyme fragments (EA and PK). The resulting functional enzyme hydrolyzes substrate to generate chemiluminescent […]
(§3) Additional information can be found at: www.eurofinsdiscovery.com/solution/b-arrestin Below are dose-response curves generated from Eurofins Discovery services for activity of ligands depicted in Figure 6B at GPR40 (FFAR1) and GPR120. […]

GPR120 = molecular target: T1, GPR120 (Homo sapiens, UniProt Q5NUL3); assay: PathHunter β-arrestin assay (Eurofins Discovery), GPR120; format: cell-based; details: for EC50: β-arrestin assay, read-out: GPR120 EC50 measured; for GPR120 max. efficacy: oleic acid = 100
T1 sequence (Q5NUL3 1-361): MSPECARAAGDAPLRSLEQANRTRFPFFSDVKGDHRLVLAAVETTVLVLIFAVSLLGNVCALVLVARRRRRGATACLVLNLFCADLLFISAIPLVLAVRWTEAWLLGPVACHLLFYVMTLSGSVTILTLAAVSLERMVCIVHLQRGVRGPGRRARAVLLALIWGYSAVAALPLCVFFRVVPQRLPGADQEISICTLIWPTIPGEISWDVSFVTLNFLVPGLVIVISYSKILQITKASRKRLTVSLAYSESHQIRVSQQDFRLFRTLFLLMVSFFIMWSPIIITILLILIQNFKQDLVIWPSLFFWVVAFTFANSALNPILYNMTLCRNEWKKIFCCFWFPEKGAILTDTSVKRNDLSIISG
Procedure: as §1, §2, §3

[1] = molecular target: T2, TLX ligand binding domain (Homo sapiens, UniProt Q9Y466); assay: TLX ligand sensing assay (AlphaScreen, RIP140 NR box peptide recruitment); format: biochemical
T2 construct: purchased NovAliX SAS, Strasbourg, France

[2] = Metabolic stability / intrinsic clearance in cryopreserved human hepatocytes
Procedure: To gain insight into potential metabolic issues, a preliminary assessment of 1-E and 3-C in a metabolic stability assay utilizing human hepatocytes was conducted.
7.1. ADME-Tox: In Vitro Metabolism
Intrinsic clearance (cr yopreserved hepatocytes, human)
Note: Unit of Clint is µ L/min/mg for microsomes, S9 and UGT assa ys; µL/min/pmol for CYP assays; µ L/min/Million cells for hepatocyte assays […]
8.1. Experimental Conditions
8.1.1. ADME-Tox: In Vitro Metabolism
8.2. Analysis and expression of results
8.2.1. ADME-Tox: In Vitro Metabolism
Intrinsic Clearance (microsomes, S9, cryopreserved hepatocytes, reco mbinant CYP, recombinant UGT) Metabolic stability, expressed as percent of the parent compound remaining , was calculated by comparing the peak area of the compound at the time point relative to that at time -0. The ha lf-life (T1/2) was estimated from the slope of the initial linear range of the logarithmic curve of compound remaining (%) vs. time, assu ming the first -order kinetics. The apparent intrinsic cleara nce (CLint, in µL/min/pmol, µL/min/mg or µL/min/Mcell ) was calculated according to the following formula: […]
T1/2*(mg protein/µL or million cells/µL or pmol CYP iso zyme/µL)

GPR40 = details: GW9508; read-out: GPR40 EC50 historical; cited from earlier work
[3] = dose-response, β-arrestin assay, read-out: GPR40 EC50 measured
[4] = ALPHA normalized, supplement, read-out: TLX EC50 (dose-response curves)
[5] = maximal efficacy measured at 100 μM
[6] = human, cryopreserved human hepatocytes, Half-life (mean), human hepatocytes, 1.0E-06 M
[7] = human, cryopreserved human hepatocytes, Half-life, single replicates (1st, 2nd, 3rd), human hepatocytes, 1.0E-06 M

T2 sequence (Q9Y466 155-383 limits assumed): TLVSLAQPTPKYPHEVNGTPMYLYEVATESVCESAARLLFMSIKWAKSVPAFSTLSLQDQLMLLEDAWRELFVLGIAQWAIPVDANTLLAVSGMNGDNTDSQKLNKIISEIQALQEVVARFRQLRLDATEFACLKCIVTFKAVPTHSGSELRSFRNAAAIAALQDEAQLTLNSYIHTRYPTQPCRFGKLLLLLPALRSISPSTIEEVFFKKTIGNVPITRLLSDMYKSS
Chain of GPR40 (FFAR1) (O14842 whole entry): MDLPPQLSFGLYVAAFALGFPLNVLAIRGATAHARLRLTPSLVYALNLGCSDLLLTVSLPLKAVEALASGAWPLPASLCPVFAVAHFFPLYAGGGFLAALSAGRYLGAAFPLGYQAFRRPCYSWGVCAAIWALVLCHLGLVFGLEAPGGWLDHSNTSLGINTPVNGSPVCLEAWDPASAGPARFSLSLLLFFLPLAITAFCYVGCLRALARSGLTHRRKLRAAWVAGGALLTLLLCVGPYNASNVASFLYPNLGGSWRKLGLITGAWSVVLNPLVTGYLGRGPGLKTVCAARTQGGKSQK

CCCCCCC[C@H](C)/C=C(/C)C/C(C)=C/[C@H](C)CCCC(=O)O [2-E]
GPR40 potency relative to oleic acid (GPR40 (FFAR1)): ~7 times
EC50 (GPR40 (FFAR1); [3]): 5000 nM and ~5000 nM
GPR40 max. efficacy (GPR40 (FFAR1); dose-response): 68%
selectivity for GPR120 (GPR120; GPR120 over GPR40): 5 fold
EC50 (GPR120; dose-response): 1100 nM
GPR120 max. efficacy (GPR120; dose-response): 35%
EC50 [1, 4]: 1310 nM

CCCCCCCCCC/C=C(/C)C/C(C)=C/[C@@H](C)CC(=O)O [1-B]
EC50 [1, 4]: 2360 nM

O=c1cc(C(F)(F)F)c2ccc(O)cc2o1 [HFC, reference compound]
CLint ([2]; human hepatocytes, 1.0E-06 M): 47.3 μL/min/million cells
Half-life (mean) ([2]; human hepatocytes, 1.0E-06 M): 0.35 h
Half-life, single replicates (1st, 2nd, 3rd) ([2]; human hepatocytes, 1.0E-06 M): 0.348 h and 0.352 h and 0.347 h

CCCCCCCCC[C@H](C)/C=C(/C)C/C(C)=C/[C@@H](C)CC(=O)O [1-F]
EC50 (GPR40 (FFAR1); [3]): 7200 nM
GPR40 max. efficacy (GPR40 (FFAR1); dose-response): 123%
EC50 (GPR120; dose-response): > 42000 nM
GPR120 max. efficacy (GPR120; [5]): 31%
EC50 [1, 4]: 1870 nM

CCCCC[C@@H](C)/C=C(/C)C/C(C)=C/[C@@H](C)CCCCCC(=O)O [3-D]
EC50 [1, 4]: 1170 nM

CC(C)NCC(O)COc1cccc2ccccc12 (centres unmarked) [Propanolol, Propranolol, reference compound]
half-life at 1 µM [2, 6]: 3.12 h
half-life at 1 µM [2, 7]: 3.25 h

CCCCCCCCCC/C=C(/C)C/C(C)=C/[C@H](C)CC(=O)O [1-A]
EC50 [1, 4]: 2180 nM

CCCCCC/C=C(/C)C/C(C)=C/[C@@H](C)CCCCCC(=O)O [3-B]
EC50 [1, 4]: 934 nM
EC50 ([1]; coactivator recruitment, read-out: TLX EC50): 900 nM
TLX max. efficacy ([1]; oleic acid = 100): 79%

CCCCCCCC/C=C(/C)C/C(C)=C/[C@@H](C)CCCC(=O)O [2-B]
EC50 [1, 4]: 3080 nM

C=CCN1CC[C@]23c4c5ccc(O)c4O[C@H]2C(=O)CC[C@@]3(O)[C@H]1C5 [Naloxone, reference compound]
Half-life, single replicates (1st, 2nd, 3rd) ([2]; human hepatocytes, 1.0E-06 M): 1.47 h and 1.852 h
hepatocyte CLint at 1 µM ([2]; human, cryopreserved human hepatocytes): 10.1 µL/min/1e6 cells
half-life at 1 µM [2, 6]: 1.65 h
half-life at 1 µM [2, 7]: 1.61 h

CCCCCCC[C@@H](C)/C=C(/C)C/C(C)=C/[C@@H](C)CCCC(=O)O [2-D]
GPR40 potency relative to oleic acid (GPR40 (FFAR1)): ~7 times
EC50 (GPR40 (FFAR1); [3]): 5500 nM and ~5000 nM
GPR40 max. efficacy (GPR40 (FFAR1); dose-response): 87%
EC50 (GPR120; dose-response): ≥ 7500 nM and 1000 to 7000 nM
GPR120 max. efficacy (GPR120; [5]): 44%
EC50 [1, 4]: 1320 nM

CCC[C@@H](C)/C=C(/C)C/C(C)=C/[C@H](C)CCCCCCCC(=O)O [4-C]
activity against GPR120 (GPR120; from Figure 6A, 15 μM): inactive
EC50 [1, 4]: 1530 nM

O=C(O)CCc1ccc(NCc2cccc(Oc3ccccc3)c2)cc1 [GW9508, reference compound]
EC50 (GPR40 (FFAR1); [3]): 1000 nM
GPR40 max. efficacy (GPR40 (FFAR1); dose-response): 229%
EC50 (GPR40 (FFAR1); three independent assays behind the average, read-out: GPR40 EC50, independent assays): 1500 nM and 980 nM and 700 nM
GPR120 max. efficacy (GPR120; dose-response): 87%
EC50 (GPR40): 47 nM

CCCCCCC[C@@H](C)/C=C(/C)C/C(C)=C/[C@H](C)CCCC(=O)O [2-C]
GPR40 potency relative to oleic acid (GPR40 (FFAR1)): ~7 times
EC50 (GPR40 (FFAR1); [3]): 6200 nM and ~5000 nM
GPR40 max. efficacy (GPR40 (FFAR1); dose-response): 95%
EC50 (GPR120; dose-response): 2600 nM
GPR120 max. efficacy (GPR120; dose-response): 31%
EC50 [1, 4]: 1510 nM
